These are literature values, as cited in patent publication US20260324644A1, “HERBICIDE COMPOSITION AND A METHOD FOR BURNDOWN APPLICATION” (UPL Mauritius Limited, priority 2022, published 2026).

In one data set the test system is plants. The conditions noted are these: background statement; cited from earlier work.
Data set [1] deals with glutamine synthetase (GS). The conditions noted are these: role: inhibitor; GS of bacteria and plants; cited from earlier work.

In the case of `CP(=O)(O)CC[C@@H](N)C(=O)O` [D-glufosinate], the herbicidal activity entry in the data set on plants was “not herbicidally active”. In addition, the “inhibition of glutamine synthetase (GS)” value in data set [1] is given as “not a GS inhibitor”.
